Assay: confirmation of dissolution of the pentacene derivative in the solvent
Assay type: physicochemical
Protocol: Herein, all samples are compositions containing no test compound and including the pentacene derivative and/or the salt thereof and the solvent.
6,13-Diphenylpentacene (0.4 mg, produced by Sigma-Aldrich Co., Ltd.) represented by the following formula was prepared as the pentacene derivative represented by formula (A), and dissolved in a mixed liquid of water and deuterated ethanol (2 mL, pure water:ethanol=1:9% by mass) as the solvent, thereby preparing a sample.
6,13-Diphenylpentacene (0.5 mg) represented by the above formula, as the pentacene derivative represented by formula (A), was dissolved in a mixed liquid of benzene and polystyrene (1 mL, benzene:polystyrene=5:5% by mass) as the solvent, thereby preparing a sample.
(§1) 6,13-Diphenylpentacene (0.5 mg) represented by the above formula, as the pentacene derivative represented by formula (A), was dissolved in a mixed liquid of benzene and deuterated toluene (1 mL, benzene:deuterated toluene=1:9% by mass) as the solvent, thereby preparing a sample.
as §1, with “6,13-Dibiphenylpentacene (0.4 mg, produced by Luminescence Technology Crop.)” for “6,13-Diphenylpentacene (0.5 mg)”, “following” for “above”, “(2” for “(1”
(§2) 6,13-Bis[(triethylsilyl)ethynyl]pentacene (0.4 mg, produced by Sigma-Aldrich Co., Ltd.) represented by the following formula, as the pentacene derivative represented by formula (A), was dissolved in a mixed liquid of benzene and polystyrene (2 mL, benzene:polystyrene=5:5% by mass) as the solvent, thereby preparing a sample.
as §2, with “6,13-Bis[(triisopropylsilyl)ethynyl]pentacene” for “6,13-Bis[(triethylsilyl)ethynyl]pentacene”, “Tokyo Chemical Industry” for “Sigma-Aldrich”
Pentacene (0.4 mg, produced by Sigma-Aldrich Co., Ltd.) represented by the following formula, and a mixed liquid of benzene and deuterated toluene (2 mL, benzene:deuterated toluene=1:9% by mass) as the solvent were mixed, thereby preparing a composition for NMR measurement.

[1] = 0.4 mg in 2 mL mixed liquid of benzene and polystyrene (5:5 by mass)
[2] = 0.4 mg in 2 mL mixed liquid of benzene and deuterated toluene (1:9 by mass)

| Structure (SMILES) | dissolution in the solvent [1] | dissolution in the solvent [2] | other results |
| --- | --- | --- | --- |
| CC[Si](C#Cc1c2cc3ccccc3cc2c(C#C[Si](CC)(CC)CC)c2cc3ccccc3cc12)(CC)CC [6,13-bis[(triethylsilyl)ethynyl]pentacene] | completely dissolved | – | – |
| c1ccc(-c2c3cc4ccccc4cc3c(-c3ccccc3)c3cc4ccccc4cc23)cc1 [6,13-diphenylpentacene] | – | – | dissolution in the solvent (0.4 mg in 2 mL mixed liquid of water and deuterated ethanol (1:9 by mass)): completely dissolved; dissolution in the solvent (0.5 mg in 1 mL mixed liquid of benzene and deuterated toluene (1:9 by mass)): completely dissolved; dissolution in the solvent (0.5 mg in 1 mL mixed liquid of benzene and polystyrene (5:5 by mass)): completely dissolved |
| c1ccc(-c2ccc(-c3c4cc5ccccc5cc4c(-c4ccc(-c5ccccc5)cc4)c4cc5ccccc5cc34)cc2)cc1 [6,13-dibiphenylpentacene] | – | completely dissolved | – |
| c1ccc2cc3cc4cc5ccccc5cc4cc3cc2c1 [pentacene, Pentacene] | – | not almost dissolved | – |
| CC(C)[Si](C#Cc1c2cc3ccccc3cc2c(C#C[Si](C(C)C)(C(C)C)C(C)C)c2cc3ccccc3cc12)(C(C)C)C(C)C [6,13-bis[(triisopropylsilyl)ethynyl]pentacene] | completely dissolved | – | – |

Reference: patent publication US20180188338A1, “Nuclear Spin Polarization Enhancing Method Through Dynamic Nuclear Polarization by Using Soluble Pentacene” (RIKEN, priority 2015, published 2018)
